# Measurements published in patent US12692264B2, “Pyrimidine or pyridine derivative, preparation method therefor, and application thereof in pharmacy” (ABBISKO THERAPEUTICS CO., LTD., priority 2021, dated 2026).
# What was measured:
# Assay type in all cases: cell-based
# [1] = biological target: Ba/F3 EGFR-V769_D770insASV (Homo sapiens, UniProt P00533, DUP767-769, cells depend on it); experiment: Cell proliferation study (CellTiter-Glo, 72 hrs), Ba/F3 EGFR-V769_D770insASV; details: CTG, * = average of multiple measurements, read-out: Ba/F3 EGFR-V769_D770insASV IC50
# Ba/F3 EGFR-V769_D770insASV, sequence (P00533 with tags, fused parts or gaps DUP767-769): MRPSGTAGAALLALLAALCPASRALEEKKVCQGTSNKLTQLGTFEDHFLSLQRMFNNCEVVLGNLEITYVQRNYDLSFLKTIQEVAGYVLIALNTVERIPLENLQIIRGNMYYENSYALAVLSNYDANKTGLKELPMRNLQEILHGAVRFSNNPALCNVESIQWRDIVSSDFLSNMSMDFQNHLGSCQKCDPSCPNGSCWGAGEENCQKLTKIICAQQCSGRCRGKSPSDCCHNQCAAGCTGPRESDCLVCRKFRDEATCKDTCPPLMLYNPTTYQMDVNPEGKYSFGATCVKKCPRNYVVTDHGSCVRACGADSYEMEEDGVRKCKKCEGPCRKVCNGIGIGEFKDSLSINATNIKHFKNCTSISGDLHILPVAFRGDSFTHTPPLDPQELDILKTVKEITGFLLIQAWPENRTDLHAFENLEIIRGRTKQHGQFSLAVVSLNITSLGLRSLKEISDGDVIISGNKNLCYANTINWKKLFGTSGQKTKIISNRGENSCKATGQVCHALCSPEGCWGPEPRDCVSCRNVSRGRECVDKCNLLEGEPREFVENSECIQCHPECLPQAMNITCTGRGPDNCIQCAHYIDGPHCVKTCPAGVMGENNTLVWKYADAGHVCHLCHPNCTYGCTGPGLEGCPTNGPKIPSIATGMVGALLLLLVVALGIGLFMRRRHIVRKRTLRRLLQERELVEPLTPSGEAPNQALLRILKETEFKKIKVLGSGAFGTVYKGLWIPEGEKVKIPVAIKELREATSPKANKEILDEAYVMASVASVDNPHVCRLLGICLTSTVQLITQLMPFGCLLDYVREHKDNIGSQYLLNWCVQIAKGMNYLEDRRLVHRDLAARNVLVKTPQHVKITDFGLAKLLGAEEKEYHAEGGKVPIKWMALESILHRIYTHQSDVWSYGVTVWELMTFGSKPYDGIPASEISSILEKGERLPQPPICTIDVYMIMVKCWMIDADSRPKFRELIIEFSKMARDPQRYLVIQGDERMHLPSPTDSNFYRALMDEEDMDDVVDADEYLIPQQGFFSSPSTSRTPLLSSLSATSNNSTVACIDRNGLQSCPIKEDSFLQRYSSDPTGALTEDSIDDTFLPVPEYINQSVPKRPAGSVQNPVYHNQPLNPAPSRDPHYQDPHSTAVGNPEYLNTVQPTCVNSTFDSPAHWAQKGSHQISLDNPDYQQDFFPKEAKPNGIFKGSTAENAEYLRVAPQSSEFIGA
# Summary of the method: (§1)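 Cells were seeded overnight, then exposed for 72 hrs at 37 °C, 5% CO2 to 9 concentrations in 3.16-fold steps, 0.1% DMSO final, triplicate wells. Viability was read by CellTiter-Glo luminescence, with a T0 plate read at dosing. IC50 came from nonlinear sigmoidal dose-response fits.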
# A431 (EGFR-WT) = experiment: Cell proliferation study (CellTiter-Glo, 72 hrs), A431; details: Homo sapiens, A-431, A431 cells, CTG, * = average of multiple measurements
# Summary of the method: as §1
# [2] = biological target: Ba/F3 EGFR-D770-N771ins_SVD (Homo sapiens, UniProt P00533, DUP768-770, cells depend on it); experiment: Cell proliferation study (CellTiter-Glo, 72 hrs), Ba/F3 EGFR-D770-N771ins_SVD; details: CTG, * = average of multiple measurements, read-out: Ba/F3 EGFR-D770-N771ins_SVD IC50
# Ba/F3 EGFR-D770-N771ins_SVD, sequence (P00533 with tags, fused parts or gaps DUP768-770): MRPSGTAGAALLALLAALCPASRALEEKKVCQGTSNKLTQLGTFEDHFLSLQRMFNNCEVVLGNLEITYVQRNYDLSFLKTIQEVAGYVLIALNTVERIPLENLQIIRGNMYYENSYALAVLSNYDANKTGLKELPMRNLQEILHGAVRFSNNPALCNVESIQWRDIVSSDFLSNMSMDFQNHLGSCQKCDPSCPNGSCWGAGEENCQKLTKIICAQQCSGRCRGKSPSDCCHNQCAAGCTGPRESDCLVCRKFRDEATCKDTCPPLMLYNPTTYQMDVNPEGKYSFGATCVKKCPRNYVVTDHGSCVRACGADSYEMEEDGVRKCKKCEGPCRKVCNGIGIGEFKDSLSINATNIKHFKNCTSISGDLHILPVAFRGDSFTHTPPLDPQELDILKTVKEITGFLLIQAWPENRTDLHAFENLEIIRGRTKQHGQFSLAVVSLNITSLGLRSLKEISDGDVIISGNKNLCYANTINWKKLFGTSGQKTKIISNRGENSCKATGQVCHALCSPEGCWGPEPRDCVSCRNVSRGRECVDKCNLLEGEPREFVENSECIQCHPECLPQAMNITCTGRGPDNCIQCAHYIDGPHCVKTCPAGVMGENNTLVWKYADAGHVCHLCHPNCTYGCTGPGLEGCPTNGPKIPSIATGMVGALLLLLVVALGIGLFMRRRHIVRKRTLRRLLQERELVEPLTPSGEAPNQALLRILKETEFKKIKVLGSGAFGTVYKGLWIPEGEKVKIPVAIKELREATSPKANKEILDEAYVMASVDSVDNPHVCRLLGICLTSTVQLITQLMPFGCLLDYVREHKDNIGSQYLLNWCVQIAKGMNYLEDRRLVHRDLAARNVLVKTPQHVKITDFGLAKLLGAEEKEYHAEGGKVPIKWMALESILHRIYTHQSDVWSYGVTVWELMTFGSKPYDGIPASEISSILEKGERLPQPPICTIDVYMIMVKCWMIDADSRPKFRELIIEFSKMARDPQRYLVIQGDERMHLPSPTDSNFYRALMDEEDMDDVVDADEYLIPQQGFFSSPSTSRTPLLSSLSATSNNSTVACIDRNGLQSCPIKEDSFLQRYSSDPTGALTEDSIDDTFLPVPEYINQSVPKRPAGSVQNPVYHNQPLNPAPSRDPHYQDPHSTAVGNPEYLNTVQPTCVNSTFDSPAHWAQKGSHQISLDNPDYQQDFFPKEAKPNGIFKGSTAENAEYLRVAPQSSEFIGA
# Summary of the method: as §1
GI50 [1],IC50 (A431 (EGFR-WT)),GI50 [2],Compound
35.1 nM,627 nM,12.4 nM,"C=CC(=O)Nc1cc(Nc2ncc(C(=O)OC(C)C)c(N3CC4(CCC4)c4ncccc43)n2)c(OC(F)F)cc1N(C)CCN(C)C [Example 6, isopropyl 2-((5-acrylamido-2-(difluoromethoxy)-4-((2-(dimethylamino)ethyl)(methyl)ami-no)phenyl)amino)-4-(spiro(cyclo-butane-1,3′-pyrrolo[3,2-b]pyridin)-1′(2′H)-yl)pyrimidine-5-carboxylate]"
12.6 nM,220 nM,12 nM,"C=CC(=O)Nc1cc(Nc2ncc(C(=O)OC(C)C)c(N3CC(C)(C)c4nc(C#CC)ccc43)n2)c(OC)cc1N1C[C@@H](F)C[C@@H]1CN(C)C [Example 84, isopropyl 2-((5-acrylamido-4-((2R,4S)-2-((di-methylamino)methyl)-4-fluoro-pyrrolidin-1-yl)-2-methoxy-phenyl)amino)-4-(3,3-dimethyl-5-(prop-1-yn-1-yl)-2,3-dihydro-1H-pyrrolo[3,2-b]pyridin-1-yl)pyrimidine-5-carboxylate]"
36.9 nM,599 nM,18.5 nM,"C=CC(=O)Nc1cc(Nc2ncc(C(=O)OC(C)C)c(N3CC(C)(C)c4nc(C)ccc43)n2)c(OC)cc1N1CC[C@@H](N(C)C)C1 [Example 12, isopropyl (R)-2-((5-acrylamido-4-(3-(dimethyl-amino)pyrrolidin-1-yl)-2-methoxy-phenyl)amino)-4-(3,3,5-trimethyl-2,3-dihydro-1H-pyrrolo[3,2-b]pyridin-1-yl)pyrimidine-5-carboxylate]"
27.9 nM,813 nM,36.7 nM,"[2H]C1([2H])N(c2nc(Nc3cc(NC(=O)C=C)c(N4CC(N(C)C)C4)cc3OC)ncc2C(=O)OC(C)C)c2ccc(C)nc2C1(C)C [Example 50, isopropyl 2-((5-acrylamido-4-(3-(dimethylami-no)azetidin-1-yl)-2-methoxy-phenyl)amino)-4-(3,3,5-trimethyl-2,3-dihydro-1H-pyrrolo[3,2-b]pyridin-1-yl-2,2-d2)pyrimidine-5-carboxylate]"
36.4 nM,72 nM,12.3 nM,"[2H]C([2H])([2H])N(CCN(C([2H])([2H])[2H])C([2H])([2H])[2H])c1cc(OC)c(Nc2ncc(C(=O)OC(C)C)c(N3c4ccc(C)nc4C(C)(C)C3([2H])[2H])n2)cc1NC(=O)C=C [Example 78, isopropyl 2-((5-acrylamido-4-((2-(bis(methyl-d3)amino)ethyl)(methyl-d3)amino)-2-methoxyphenyl)amino)-4-(3,3,5-tri-methyl-2,3-dihydro-1H-pyrrolo[3,2-b]pyridin-1-yl-2,2-d2)pyrimidine-5-carboxylate]"
48.8 nM,127 nM,20.6 nM,"C=CC(=O)Nc1cc(Nc2ncc(C(=O)OC(C)C)c(N3CC4(CC4)c4nc(C)ccc43)n2)c(OC)cc1N(C)CCN(C)C [Example 22, isopropyl 2-((5-acrylamido-4-((2-(dimethylami-no)ethyl)(methyl)amino)-2-methoxy-phenyl)amino)-4-(5′-methylspiro(cyclo-propane-1,3′-pyrrolo[3,2-b]pyridin)-1′(2′H)-yl)pyrimidine-5-carboxylate]"
29.9 nM,735 nM,18.8 nM,"C=CC(=O)Nc1cc(Nc2ncc(C(=O)OC(C)C)c(N3CC4(CCC4)c4ncccc43)n2)c(OC)cc1N(C)CCN(C)C [Example 7, isopropyl 2-((5-acrylamido-4-((2-(dimethylami-no)ethyl)(methyl)amino)-2-methoxy-phenyl)amino)-4-(spiro(cyclobutane-1,3′-pyrrolo[3,2-b]pyridin)-1′(2′H)-yl)pyrimidine-5-carboxylate]"
12.5 nM,58.1 nM,25.8 nM,"C=CC(=O)Nc1cc(Nc2ncc(C(=O)OC(C)C)c(N3CC(C)(C)c4ccccc43)n2)c(OC)cc1N1C[C@@H](F)C[C@@H]1CN(C)C [Example 87, isopropyl 2-((5-acrylamido-4-((2R,4S)-2-((di-methylamino)methyl)-4-fluoro-pyrrolidin-1-yl)-2-methoxy-phenyl)amino)-4-(3,3-dimethyl-indolin-1-yl)pyrimidine-5-carboxylate]"
37.1 nM,515 nM,23.9 nM,"C=CC(=O)Nc1cc(Nc2ncc(C(=O)OC(C)C)c(N3CC(C)(C)c4nc(C)ccc43)n2)c(OC)cc1N(C)CCN1CCC1 [Example 67, isopropyl 2-((5-acrylamido-4-((2-(azetidin-1-yl)ethyl)(methyl)amino)-2-methoxy-phenyl)amino)-4-(3,3,5-trimethyl-2,3-dihydro-1H-pyrrolo[3,2-b]pyridin-1-yl)pyrimidine-5-carboxylate]"
22.4 nM,56.1 nM,13.4 nM,"[2H]C1([2H])N(c2nc(Nc3cc(NC(=O)C=C)c(N(C)CCN(C)C)cc3OC)ncc2C(=O)OC(C)C)c2ccc(C)nc2C1(C)C [Example 47, isopropyl 2-((5-acrylamido-4-((2-(dimethylami-no)ethyl)(methyl)amino)-2-methoxy-phenyl)amino)-4-(3,3,5-trimethyl-2,3-dihydro-1H-pyrrolo[3,2-b]pyridin-1-yl-2,2-d2)pyrimidine-5-carboxylate]"
23.6 nM,114 nM,11.3 nM,"[2H]C([2H])([2H])N(CCN(C)c1cc(OC)c(Nc2ncc(C(=O)OC(C)C)c(N3CC(C)(C)c4nc(C)ccc43)n2)cc1NC(=O)C=C)C([2H])([2H])[2H] [Example 42, isopropyl 2-((5-acrylamido-4-((2-(bis(methyl-d3)amino)ethyl)(methyl)amino)-2-methoxyphenyl)amino)-4-(3,3,5-trimethyl-2,3-dihydro-1H-pyrrolo[3,2-b]pyridin-1-yl)pyrimidine-5-carboxylate]"
18.7 nM,102 nM,11 nM,"C=CC(=O)Nc1cc(Nc2ncc(C(=O)OC(C)C)c(N3CC(C)(C)c4nc(-c5cnn(C)c5)ccc43)n2)c(OC)cc1N(C)CCN(C)C [Example 8, isopropyl 2-((5-acrylamido-4-((2-(dimethylami-no)ethyl)(methyl)amino)-2-methoxy-phenyl)amino)-4-(3,3-dimethyl-5-(1-methyl-1H-pyrazol-4-yl)-2,3-dihydro-1H-pyrrolo[3,2-b]pyridin-1-yl)pyrimidine-5-carboxylate]"
21.5 nM,557 nM,7.6 nM,"C=CC(=O)Nc1cc(Nc2ncc(C(=O)OC(C)C)c(N3CC(C)(C)c4nc(C#CC)ccc43)n2)c(OC)cc1N(C)CCN(C)C [Example 30, isopropyl 2-((5-acrylamido-4-((2-(dimethylami-no)ethyl)(methyl)amino)-2-methoxy-phenyl)amino)-4-(3,3-dimethyl-5-(prop-1-yn-1-yl)-2,3-dihydro-1H-pyrrolo[3,2-b]pyridin-1-yl)pyrimidine-5-carboxylate]"
37 nM,4.4 nM,11.1 nM,"[2H]C1([2H])N(c2nc(Nc3cc(NC(=O)C=C)c(N4CCC[C@@H]4CN(C)C)cc3OC)ncc2C(=O)OC(C)C)c2ccc(C)nc2C1(C)C [Example 48, isopropyl (R)-2-((5-acrylamido-4-(2-((dimethyl-amino)methyl)pyrrolidin-1-yl)-2-meth-oxyphenyl)amino)-4-(3,3,5-trimethyl-2,3-dihydro-1H-pyrrolo[3,2-b]pyridin-1-yl-2,2-d2)pyrimidine-5-carboxylate]"
52.8 nM,363 nM,29.7 nM,"C=CC(=O)Nc1cc(Nc2ncc(C(=O)OC(C)C)c(N3CC4(CC4)c4nc(C)ccc43)n2)c(OC)cc1N1CC[C@@H](N(C)C)C1 [Example 26, isopropyl (R)-2-((5-acrylamido-4-(3-(dimethyl-amino)pyrrolidin-1-yl)-2-methoxy-phenyl)amino)-4-(5′-methyl-spiro(cyclopropane-1,3′-pyrrolo[3,2-b]pyridin)-1′(2′H)-yl)pyrimidine-5-carboxylate]"
